Test results taken from ChEMBL document CHEMBL1201862, “PubChem BioAssay data set” (2004).
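Values below derive from 48-hour exposures of cells grown in 96-well plates, with endpoints linearly interpolated between the two concentrations bracketing the appropriate inhibition level. GI50 marks 50% less growth.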 Activity calls are given as the source filed them. No stated cut-off is given here; in the data, active = GI50 up to about 1.1 µM and inactive = higher.

Key:
Experiment in all cases: DTP human tumour cell line panel, 48 h
KM12 = test system: KM12
IGROV-1 = test system: IGROV-1
HL-60 = test system: HL-60
DU-145 = test system: DU-145
RXF 393 = test system: RXF 393
EKVX = test system: EKVX
TK-10 = test system: TK-10
NCI-H226 = test system: NCI-H226
786-0 = test system: 786-0
BT-549 = test system: BT-549
LXFL 529 = test system: LXFL 529
CCRF-CEM = test system: CCRF-CEM
SF-539 = test system: SF-539
A549 = test system: A549
UACC-257 = test system: UACC-257
HCT-116 = test system: HCT-116
LOX IMVI = test system: LOX IMVI
ACHN = test system: ACHN
HCT-15 = test system: HCT-15
HOP-18 = test system: HOP-18

## CCN(CC)CCNc1ccc2nnn3c4ccc(O)cc4c(=O)c1c23
KM12
  GI50: 1.01 µM (active)
IGROV-1
  GI50: 4.01 µM (inactive)
HL-60
  GI50: 2.05 µM (inactive)
DU-145
  GI50: 14300 nM (inactive)
RXF 393
  GI50: 603 nM (active)
EKVX
  GI50: 6.98 µM (inactive)
TK-10
  GI50: 5.56 µM (inactive)
NCI-H226
  GI50: 3.35 µM (inactive)
786-0
  GI50: 1.24 µM (inactive)
BT-549
  GI50: 12.7 µM (inactive)
LXFL 529
  GI50: 6.58 µM (inactive)
CCRF-CEM
  GI50: 0.586 µM (active)
SF-539
  GI50: 1.71 µM (inactive)
A549
  GI50: 0.161 µM (active)
UACC-257
  GI50: 12.2 µM (inactive)
HCT-116
  GI50: 0.935 µM (active)
LOX IMVI
  GI50: 1.21 µM (inactive)
ACHN
  GI50: 0.745 µM (active)
HCT-15
  GI50: 1830 nM
HOP-18
  GI50: 20.5 µM (inactive)

## CCOC(OCC)C(CC)[Se]c1ccccc1 (stereo not drawn)
KM12
  GI50: > 100 µM (inactive)
IGROV-1
  GI50: > 100 µM (inactive)
HL-60
  GI50: 2.42 µM (inactive)
RXF 393
  GI50: 55200 nM (inactive)
EKVX
  GI50: > 100 µM (inactive)
TK-10
  GI50: > 100 µM (inactive)
NCI-H226
  GI50: 27.3 µM (inactive)
786-0
  GI50: 19.1 µM (inactive)
LXFL 529
  GI50: 35.6 µM (inactive)
CCRF-CEM
  GI50: 16.3 µM (inactive)
SF-539
  GI50: > 100 µM (inactive)
A549
  GI50: > 100 µM (inactive)
UACC-257
  GI50: > 100 µM (inactive)
HCT-116
  GI50: 31.8 µM (inactive)
LOX IMVI
  GI50: 5.82 µM (inactive)
ACHN
  GI50: > 100 µM (inactive)
HCT-15
  GI50: 15500 nM
HOP-18
  GI50: 65.2 µM (inactive)

## OCCCCCCOc1ccc(-c2cc(-c3ccccn3)nc(-c3ccccn3)c2)cc1
KM12
  GI50: 0.388 µM (active)
IGROV-1
  GI50: 0.205 µM (active)
HL-60
  GI50: 0.0853 µM (active)
DU-145
  GI50: 71.6 nM (active)
RXF 393
  GI50: 239 nM (active)
EKVX
  GI50: 0.18 µM (active)
TK-10
  GI50: 0.357 µM (active)
NCI-H226
  GI50: 0.104 µM (active)
786-0
  GI50: 0.0944 µM (active)
BT-549
  GI50: 0.149 µM (active)
LXFL 529
  GI50: 0.242 µM (active)
CCRF-CEM
  GI50: 0.026 µM (active)
SF-539
  GI50: 0.143 µM (active)
A549
  GI50: 0.23 µM (active)
UACC-257
  GI50: 0.397 µM (active)
HCT-116
  GI50: 0.132 µM (active)
LOX IMVI
  GI50: 0.117 µM (active)
ACHN
  GI50: 0.108 µM (active)
HCT-15
  GI50: 109 nM
HOP-18
  GI50: 0.182 µM (active)

## C[C@]12Cc3cn[nH]c3C(=O)C1CC[C@@H]1C2CC[C@@]2(C)C1CC[C@@H]2O (stereo partly drawn)
KM12
  GI50: > 100 µM (inactive)
IGROV-1
  GI50: > 100 µM (inactive)
HL-60
  GI50: > 100 µM (inactive)
RXF 393
  GI50: > 100000 nM (inactive)
EKVX
  GI50: > 100 µM (inactive)
TK-10
  GI50: > 100 µM (inactive)
NCI-H226
  GI50: > 100 µM (inactive)
786-0
  GI50: > 100 µM (inactive)
LXFL 529
  GI50: > 100 µM (inactive)
CCRF-CEM
  GI50: > 100 µM (inactive)
SF-539
  GI50: > 100 µM (inactive)
A549
  GI50: > 100 µM (inactive)
UACC-257
  GI50: > 100 µM (inactive)
HCT-116
  GI50: > 100 µM (inactive)
LOX IMVI
  GI50: > 100 µM (inactive)
ACHN
  GI50: > 100 µM (inactive)
HCT-15
  GI50: > 100000 nM
HOP-18
  GI50: > 100 µM (inactive)

## CC1CC2C3CCC4=CC(=O)C=CC4(C)C3(F)C(O)CC2(C)C1(O)C(=O)CO.Cc1cc(NS(=O)(=O)c2ccc(/N=N\c3cc(/N=N/c4ccc(S(=O)(=O)Nc5cc(C)nc(C)n5)cc4)c(OC(=O)C(Cl)Cl)c4cccc(NC(=O)C(Cl)Cl)c34)cc2)nc(C)n1
KM12
  GI50: 16.6 µM (inactive)
IGROV-1
  GI50: 24.5 µM (inactive)
HL-60
  GI50: 16 µM (inactive)
RXF 393
  GI50: 23900 nM (inactive)
EKVX
  GI50: 26.2 µM (inactive)
TK-10
  GI50: 42.7 µM (inactive)
NCI-H226
  GI50: 22.2 µM (inactive)
786-0
  GI50: 18 µM (inactive)
LXFL 529
  GI50: 10 µM (inactive)
SF-539
  GI50: 20.9 µM (inactive)
A549
  GI50: 27 µM (inactive)
UACC-257
  GI50: 29.9 µM (inactive)
HCT-116
  GI50: 34.3 µM (inactive)
LOX IMVI
  GI50: 19.2 µM (inactive)
ACHN
  GI50: 19.5 µM (inactive)
HCT-15
  GI50: 15600 nM
HOP-18
  GI50: 18.8 µM (inactive)

## COC1C(O)C(C)OC(OC2C(Oc3cccc4c(O)c5c(=O)oc6ccc(C)c7c(=O)oc(c34)c5c67)OC(C)C3O[C@H](c4ccccc4)OC32)C1O (stereo partly drawn)
IGROV-1
  GI50: 0.0681 µM (active)
HL-60
  GI50: 0.098 µM (active)
DU-145
  GI50: 193 nM (active)
RXF 393
  GI50: 274 nM (active)
EKVX
  GI50: 1.24 µM (inactive)
TK-10
  GI50: 1.06 µM (active)
NCI-H226
  GI50: 0.0682 µM (active)
786-0
  GI50: 0.0521 µM (active)
LXFL 529
  GI50: 0.0678 µM (active)
SF-539
  GI50: 0.0746 µM (active)
A549
  GI50: 0.0286 µM (active)
ACHN
  GI50: 0.0378 µM (active)
HCT-15
  GI50: 168 nM
HOP-18
  GI50: 1.05 µM (active)

## CCCCCCCCCCCCCCCCCCOCC1(COP(=O)([O-])OCC[N+](C)(C)C)CCCO1 (stereo not drawn)
KM12
  GI50: 1.39 µM (inactive)
IGROV-1
  GI50: 2.49 µM (inactive)
HL-60
  GI50: 2.18 µM (inactive)
RXF 393
  GI50: 393 nM (active)
TK-10
  GI50: 1.6 µM (inactive)
NCI-H226
  GI50: 5.01 µM (inactive)
786-0
  GI50: 3.73 µM (inactive)
LXFL 529
  GI50: 4.92 µM (inactive)
CCRF-CEM
  GI50: 2.89 µM (inactive)
SF-539
  GI50: 15.8 µM (inactive)
A549
  GI50: 7.6 µM (inactive)
UACC-257
  GI50: 13.9 µM (inactive)
HCT-116
  GI50: 10.1 µM (inactive)
LOX IMVI
  GI50: 6.43 µM (inactive)
ACHN
  GI50: 6.37 µM (inactive)
HOP-18
  GI50: 2.82 µM (inactive)
